Test results reported in publication PMC9268448, “Synthesis of 4,5-Dihydro-1H-[1,2]dithiolo[3,4-c]quinoline-1-thione Derivatives and Their Application as Protein Kinase Inhibitors” (Molecules, 2022).

Assays:
JAK3 = target: T1, JAK3 (Homo sapiens, UniProt P52333); assay: Kinase inhibition ELISA, JAK3; type: biochemical; details: 10 μM test compound, 150 μM ATP
T1 sequence (P52333 1-1124): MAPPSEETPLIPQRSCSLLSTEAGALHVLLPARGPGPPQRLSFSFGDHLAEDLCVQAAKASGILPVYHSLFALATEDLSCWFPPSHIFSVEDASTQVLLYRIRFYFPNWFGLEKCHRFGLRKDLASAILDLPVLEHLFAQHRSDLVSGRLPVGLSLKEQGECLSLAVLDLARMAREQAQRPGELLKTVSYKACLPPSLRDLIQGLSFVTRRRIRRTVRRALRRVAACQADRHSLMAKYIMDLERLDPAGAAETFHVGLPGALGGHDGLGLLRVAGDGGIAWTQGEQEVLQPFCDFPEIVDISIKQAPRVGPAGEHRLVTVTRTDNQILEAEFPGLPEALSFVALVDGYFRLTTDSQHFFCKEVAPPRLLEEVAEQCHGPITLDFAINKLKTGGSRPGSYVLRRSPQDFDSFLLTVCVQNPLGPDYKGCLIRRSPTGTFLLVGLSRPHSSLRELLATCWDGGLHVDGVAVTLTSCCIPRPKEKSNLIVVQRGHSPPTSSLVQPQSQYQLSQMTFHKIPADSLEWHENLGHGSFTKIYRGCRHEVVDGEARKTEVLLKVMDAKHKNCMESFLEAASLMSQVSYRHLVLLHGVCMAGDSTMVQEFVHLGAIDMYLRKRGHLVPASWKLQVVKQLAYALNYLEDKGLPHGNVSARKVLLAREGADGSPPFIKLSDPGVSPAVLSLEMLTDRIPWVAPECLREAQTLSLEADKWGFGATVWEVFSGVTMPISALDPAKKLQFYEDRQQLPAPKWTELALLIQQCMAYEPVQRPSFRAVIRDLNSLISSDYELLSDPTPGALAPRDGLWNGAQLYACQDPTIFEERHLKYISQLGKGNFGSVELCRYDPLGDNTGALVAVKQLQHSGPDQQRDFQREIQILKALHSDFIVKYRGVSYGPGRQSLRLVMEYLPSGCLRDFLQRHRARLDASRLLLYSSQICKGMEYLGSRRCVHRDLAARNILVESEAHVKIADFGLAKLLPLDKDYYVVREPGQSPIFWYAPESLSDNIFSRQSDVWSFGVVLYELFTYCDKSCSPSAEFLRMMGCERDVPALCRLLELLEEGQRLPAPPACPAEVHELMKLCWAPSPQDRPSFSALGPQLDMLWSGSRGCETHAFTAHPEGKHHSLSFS
Experimental: (§1) Study of inhibitory activity. The kinase activity was determined by enzyme-linked immunosorbent assay (ELISA) in polypropylene plates (Costar, 3363) in reaction buffer (20 mM HEPES, pH 7.5, 15 mM MgCl2, 2 mM DTT, 0.2 mM Na3VO4, 0.005% Triton X-100) for 60 min at 30 °C with vigorous stirring. The final concentration of the reaction components: 0.05 μg mL^–1 of the corresponding kinase, 5 nM Histon H3 biotinylated substrate (1–21) (Anaspec, 61702), 150 μM ATP (Sigma, A6419), 10 μM test compound, 5% DMSO. The enzymatic reaction was stopped with a buffer containing 20 mM HEPES (Sigma, H4034), pH 7.5, and 150 mM EDTA (Sigma, E5513). Further, to detect the phosphorylated substrate, the reaction mixture was transferred to pre-prepared plates (Nunc, 468667) coated with neutravidin (1 ng per well; Pierce, 31000) and treated with bovine serum albumin (BSA) to block non-specific binding sites. Incubation was carried out for 1 h at room temperature. After washing the plates three times with phosphate buffer saline (PBS, pH 7.4) with Tween-20, they were incubated sequentially with anti-phospho-Histon H3 antibodies (0.3 ng μL^–1; Millipore, 04-746) and with specific antibodies conjugated with an enzyme-label (peroxidase) Anti-rabbit IgG, HRP-linked Antibody (titer 1/5000; Cell Signaling, 7074). After completion of each incubation step (60 min at room temperature (~20 °C) and continuous stirring), the plates were washed three times from unbound antibody molecules with a PBS solution with Tween-20 and 100 μL of substrate (3.3′,5.5′-tetramethylbenzidine (TMB) dihydrochloride, Sigma, T8768) prepared according to the manufacturer’s instructions. Before measuring the optical density, the reaction was stopped using 0.5 M Н2SO4. The optical density of the solution was determined at λ = 450 nm using a tablet spectrophotometer (TECAN Safire). The data obtained were processed and imported into the HTSCalc program.
For compounds 2a–c,q, the IC50 value (μmol L^–1) was calculated from ten concentration points (in triplicate dilution) obtained twice. The data were analyzed using GraphPad Prism software (v. 3.1).

NPM1-ALK = target: T2, NPM1-ALK (Homo sapiens, UniProt Q9UM73); assay: Kinase inhibition ELISA, NPM1-ALK; type: biochemical; details: 10 μM test compound, 150 μM ATP
T2 construct: NPM1 (nucleophosmin, P06748) fusion partner
T2 sequence (Q9UM73 whole entry, looked up, the tested form may be a part): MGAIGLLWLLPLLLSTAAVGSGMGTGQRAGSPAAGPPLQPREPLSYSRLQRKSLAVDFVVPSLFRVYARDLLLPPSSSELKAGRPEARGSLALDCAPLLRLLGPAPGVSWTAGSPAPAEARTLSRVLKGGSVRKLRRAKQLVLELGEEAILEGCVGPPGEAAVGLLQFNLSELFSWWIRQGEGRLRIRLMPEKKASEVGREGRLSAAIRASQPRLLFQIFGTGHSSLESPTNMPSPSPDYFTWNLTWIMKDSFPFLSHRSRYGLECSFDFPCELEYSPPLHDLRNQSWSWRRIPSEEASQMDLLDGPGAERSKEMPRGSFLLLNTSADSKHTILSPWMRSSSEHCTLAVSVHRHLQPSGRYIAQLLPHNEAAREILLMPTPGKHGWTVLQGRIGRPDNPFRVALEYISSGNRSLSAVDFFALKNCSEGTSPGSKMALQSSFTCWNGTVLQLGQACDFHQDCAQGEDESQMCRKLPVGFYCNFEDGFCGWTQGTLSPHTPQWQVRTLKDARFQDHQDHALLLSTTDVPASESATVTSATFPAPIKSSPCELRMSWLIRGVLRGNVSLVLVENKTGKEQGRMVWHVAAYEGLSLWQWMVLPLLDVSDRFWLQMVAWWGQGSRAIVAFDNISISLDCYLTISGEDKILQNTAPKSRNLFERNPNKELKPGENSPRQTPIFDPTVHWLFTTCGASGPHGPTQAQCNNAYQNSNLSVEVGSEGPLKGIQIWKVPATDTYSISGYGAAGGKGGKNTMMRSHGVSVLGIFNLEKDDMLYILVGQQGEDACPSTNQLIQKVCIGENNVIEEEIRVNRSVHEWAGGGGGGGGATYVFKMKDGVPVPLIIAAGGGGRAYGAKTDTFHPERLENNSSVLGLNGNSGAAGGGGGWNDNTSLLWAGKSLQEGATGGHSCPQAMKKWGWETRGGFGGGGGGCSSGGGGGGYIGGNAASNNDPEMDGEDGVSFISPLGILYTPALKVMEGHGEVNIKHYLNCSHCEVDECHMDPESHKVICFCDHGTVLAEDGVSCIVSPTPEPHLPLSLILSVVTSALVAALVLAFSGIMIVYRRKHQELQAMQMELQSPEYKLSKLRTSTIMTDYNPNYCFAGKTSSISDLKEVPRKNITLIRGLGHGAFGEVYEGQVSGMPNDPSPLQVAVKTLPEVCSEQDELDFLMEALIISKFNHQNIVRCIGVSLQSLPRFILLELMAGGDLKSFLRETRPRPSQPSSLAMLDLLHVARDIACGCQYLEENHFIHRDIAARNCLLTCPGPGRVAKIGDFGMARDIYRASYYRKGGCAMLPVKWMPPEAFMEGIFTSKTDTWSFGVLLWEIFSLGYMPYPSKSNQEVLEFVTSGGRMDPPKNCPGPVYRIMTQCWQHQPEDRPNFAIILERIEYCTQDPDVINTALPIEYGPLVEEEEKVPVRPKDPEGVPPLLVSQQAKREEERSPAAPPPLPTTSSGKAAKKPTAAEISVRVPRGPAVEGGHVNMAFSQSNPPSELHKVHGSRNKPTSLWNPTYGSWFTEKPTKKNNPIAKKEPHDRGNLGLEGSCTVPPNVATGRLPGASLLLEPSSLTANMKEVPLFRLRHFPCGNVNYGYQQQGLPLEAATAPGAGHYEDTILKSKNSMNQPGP
Experimental: (§2) Study of inhibitory activity. […] The enzymatic reaction was stopped with a buffer containing 20 mM HEPES (Sigma, H4034), pH 7.5, and 150 mM EDTA (Sigma, E5513). […] Incubation was carried out for 1 h at room temperature. […] After completion of each incubation step (60 min at room temperature (~20 °C) and continuous stirring), the plates were washed three times from unbound antibody molecules with a PBS solution with Tween-20 and 100 μL of substrate (3.3′,5.5′-tetramethylbenzidine (TMB) dihydrochloride, Sigma, T8768) prepared according to the manufacturer’s instructions. Before measuring the optical density, the reaction was stopped using 0.5 M Н2SO4. The optical density of the solution was determined at λ = 450 nm using a tablet spectrophotometer (TECAN Safire). The data obtained were processed and imported into the HTSCalc program.
(§3) The data were analyzed using GraphPad Prism software (v. 3.1).

[1] = Solubility in DMSO (noted during NMR); type: physicochemical; details: in words; NMR sample in DMSO
Experimental: The signal for the carbon atom of the imino group at 166.6 ppm was detected in the spectrum of the arylimino derivative 2q. In the mass spectra of compounds 2h, 2i–n, and 2q, peaks of protonated molecular ions, consistent with the structure of these compounds, were observed.

ALK = ALK (Homo sapiens, UniProt Q9UM73); assay: Kinase inhibition ELISA, ALK; type: biochemical; details: 10 μM test compound, 150 μM ATP
Chain of ALK (Q9UM73 19-1620): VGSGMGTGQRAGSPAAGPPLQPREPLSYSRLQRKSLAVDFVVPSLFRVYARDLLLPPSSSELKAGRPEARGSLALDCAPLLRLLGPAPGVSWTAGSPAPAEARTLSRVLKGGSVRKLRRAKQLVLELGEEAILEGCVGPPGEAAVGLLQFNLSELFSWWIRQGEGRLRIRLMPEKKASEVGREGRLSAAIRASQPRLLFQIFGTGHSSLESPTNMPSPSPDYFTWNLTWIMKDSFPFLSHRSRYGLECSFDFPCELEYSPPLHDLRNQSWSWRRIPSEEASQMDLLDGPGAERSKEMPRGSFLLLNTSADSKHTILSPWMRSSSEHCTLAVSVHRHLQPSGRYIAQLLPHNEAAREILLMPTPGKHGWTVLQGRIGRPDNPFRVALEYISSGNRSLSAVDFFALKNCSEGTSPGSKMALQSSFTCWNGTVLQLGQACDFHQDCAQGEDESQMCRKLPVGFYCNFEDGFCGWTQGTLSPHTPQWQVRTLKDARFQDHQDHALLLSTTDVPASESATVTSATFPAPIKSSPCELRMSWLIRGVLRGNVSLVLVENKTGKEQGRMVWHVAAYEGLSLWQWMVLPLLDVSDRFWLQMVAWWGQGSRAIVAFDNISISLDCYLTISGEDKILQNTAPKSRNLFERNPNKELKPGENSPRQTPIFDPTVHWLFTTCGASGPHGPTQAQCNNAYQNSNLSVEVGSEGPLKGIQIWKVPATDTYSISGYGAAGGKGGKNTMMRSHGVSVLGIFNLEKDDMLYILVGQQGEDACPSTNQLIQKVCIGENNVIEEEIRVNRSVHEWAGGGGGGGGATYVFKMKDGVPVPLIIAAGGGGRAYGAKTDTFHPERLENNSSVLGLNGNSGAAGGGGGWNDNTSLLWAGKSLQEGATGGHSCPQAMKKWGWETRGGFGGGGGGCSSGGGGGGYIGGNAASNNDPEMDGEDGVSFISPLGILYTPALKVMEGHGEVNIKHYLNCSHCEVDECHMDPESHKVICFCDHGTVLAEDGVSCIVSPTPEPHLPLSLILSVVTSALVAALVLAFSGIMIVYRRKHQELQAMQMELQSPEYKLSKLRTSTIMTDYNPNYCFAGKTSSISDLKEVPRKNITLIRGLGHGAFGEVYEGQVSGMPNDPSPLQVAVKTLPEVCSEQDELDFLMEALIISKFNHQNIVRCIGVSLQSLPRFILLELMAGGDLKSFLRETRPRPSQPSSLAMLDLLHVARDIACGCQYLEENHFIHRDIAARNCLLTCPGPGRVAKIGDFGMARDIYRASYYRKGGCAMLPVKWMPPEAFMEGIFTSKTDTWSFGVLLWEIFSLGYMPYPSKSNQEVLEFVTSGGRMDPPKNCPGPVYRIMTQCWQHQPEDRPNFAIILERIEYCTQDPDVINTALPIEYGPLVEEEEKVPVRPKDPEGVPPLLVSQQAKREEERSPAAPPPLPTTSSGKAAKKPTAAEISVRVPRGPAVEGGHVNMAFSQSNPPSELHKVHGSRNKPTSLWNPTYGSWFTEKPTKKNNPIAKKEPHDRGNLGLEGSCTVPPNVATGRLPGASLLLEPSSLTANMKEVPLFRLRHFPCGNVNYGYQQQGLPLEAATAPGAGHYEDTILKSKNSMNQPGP
Experimental: as §1

EGFR[L858R][T790] = EGFR[L858R][T790] (Homo sapiens, UniProt P00533, L858R/T790M); assay: Kinase inhibition ELISA, EGFR[L858R][T790]; type: biochemical; details: 10 μM test compound, 150 μM ATP
Experimental: as §1

cRAF[Y340D][Y341D] = cRAF[Y340D][Y341D] (Homo sapiens, UniProt P04049, Y340D/Y341D); assay: Kinase inhibition ELISA, cRAF[Y340D][Y341D]; type: biochemical; details: 10 μM test compound, 150 μM ATP
Chain of cRAF[Y340D][Y341D] (P04049 whole entry Y340D/Y341D): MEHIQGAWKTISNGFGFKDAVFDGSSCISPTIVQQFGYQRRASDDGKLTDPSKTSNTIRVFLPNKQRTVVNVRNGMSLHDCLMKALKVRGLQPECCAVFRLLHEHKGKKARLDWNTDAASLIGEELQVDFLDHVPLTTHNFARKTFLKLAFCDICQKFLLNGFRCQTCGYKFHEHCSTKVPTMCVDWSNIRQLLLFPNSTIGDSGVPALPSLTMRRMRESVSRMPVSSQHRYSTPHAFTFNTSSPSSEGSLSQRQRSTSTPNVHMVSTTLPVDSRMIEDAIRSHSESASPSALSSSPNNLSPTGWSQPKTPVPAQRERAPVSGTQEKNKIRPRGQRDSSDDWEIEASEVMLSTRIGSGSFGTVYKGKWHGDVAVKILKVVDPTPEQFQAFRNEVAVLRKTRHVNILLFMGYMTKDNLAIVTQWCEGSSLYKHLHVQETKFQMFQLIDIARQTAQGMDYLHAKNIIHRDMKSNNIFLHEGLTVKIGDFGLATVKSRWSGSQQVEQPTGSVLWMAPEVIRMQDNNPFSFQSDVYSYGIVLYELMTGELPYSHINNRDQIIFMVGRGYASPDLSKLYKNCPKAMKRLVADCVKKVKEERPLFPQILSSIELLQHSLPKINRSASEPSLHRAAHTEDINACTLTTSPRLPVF
Experimental: as §2, §3

JAK2 = JAK2 (Homo sapiens, UniProt O60674); assay: Kinase inhibition ELISA, JAK2; type: biochemical; details: 10 μM test compound, 150 μM ATP
Chain of JAK2 (O60674 whole entry): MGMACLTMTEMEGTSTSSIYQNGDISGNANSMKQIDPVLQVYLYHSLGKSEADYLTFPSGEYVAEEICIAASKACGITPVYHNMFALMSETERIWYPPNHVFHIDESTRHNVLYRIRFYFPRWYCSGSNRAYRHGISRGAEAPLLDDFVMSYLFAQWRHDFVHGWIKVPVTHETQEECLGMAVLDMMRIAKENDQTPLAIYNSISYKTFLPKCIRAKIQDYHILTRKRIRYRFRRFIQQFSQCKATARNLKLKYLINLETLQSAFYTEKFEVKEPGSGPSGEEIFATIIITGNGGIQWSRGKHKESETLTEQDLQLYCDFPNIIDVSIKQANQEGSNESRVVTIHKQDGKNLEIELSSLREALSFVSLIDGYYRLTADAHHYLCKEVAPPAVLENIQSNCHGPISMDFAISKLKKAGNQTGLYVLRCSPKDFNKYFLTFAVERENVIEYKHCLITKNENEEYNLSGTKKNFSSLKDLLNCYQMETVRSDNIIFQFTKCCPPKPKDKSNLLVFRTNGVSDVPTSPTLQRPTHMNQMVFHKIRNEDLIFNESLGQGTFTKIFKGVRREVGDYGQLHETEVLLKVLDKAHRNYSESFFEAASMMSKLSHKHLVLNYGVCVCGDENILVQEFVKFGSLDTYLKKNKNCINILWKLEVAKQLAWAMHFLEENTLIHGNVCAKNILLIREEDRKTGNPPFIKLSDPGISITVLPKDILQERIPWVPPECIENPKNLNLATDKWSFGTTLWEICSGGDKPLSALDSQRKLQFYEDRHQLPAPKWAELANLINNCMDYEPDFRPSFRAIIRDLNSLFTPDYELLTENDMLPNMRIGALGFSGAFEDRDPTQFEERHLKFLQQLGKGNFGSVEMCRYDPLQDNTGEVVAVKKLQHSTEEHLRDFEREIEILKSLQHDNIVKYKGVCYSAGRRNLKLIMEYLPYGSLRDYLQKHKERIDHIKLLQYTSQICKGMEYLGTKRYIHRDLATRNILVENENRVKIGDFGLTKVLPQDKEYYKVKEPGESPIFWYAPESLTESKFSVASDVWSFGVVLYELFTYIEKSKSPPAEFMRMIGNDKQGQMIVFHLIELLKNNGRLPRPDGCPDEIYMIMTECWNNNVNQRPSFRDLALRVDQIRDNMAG
Experimental: as §1

inhibition at 10 µM (JAK3): 52% | inhibition at 10 µM (NPM1-ALK): 24% | solubility in DMSO [1]: low solubility in DMSO | inhibition at 10 µM (ALK): 19% | inhibition at 10 µM (EGFR[L858R][T790]): 5% | inhibition at 10 µM (cRAF[Y340D][Y341D]): 13% | inhibition at 10 µM (JAK2): 47% | melting point: > 260 °C
SMILES: CC1(C)c2ssc(=S)c2-c2cc3c(c4c2N1C(=O)C4=O)OCCO3 [2n, 8,8-Dimethyl-11-thioxo-2,3,8,11-tetrahydro[1,4]dioxino[2,3-g][1,2]dithiolo[3,4-c]pyrrolo[3,2,1-ij]quinoline-5,6-dione]
